Values after ≈ are worked out from the molar mass of the structure shown.

The target in one experiment is Protein Kinase C. The experiment can be described thus: Protein kinase C inhibitory activity (method of Kikkawa et al.; crude enzyme from rat brain, Histone Type II S phosphorylation). It counts as biochemical. The settings on record: crude enzyme partially purified from rat brain; [γ-32P]ATP, 30° C., 3 minutes, pH 7.5. As for the experimental part: Protein kinase C inhibitory activity
The protein kinase C inhibitory activity was measured by the method of Kikkawa, et al. [Journal of Biological Chemistry, 257, 13341 (1982)].
That is, 10 μl of a test solution containing a UCN-1028D derivative was added to 250 μl of a solution containing 2.5 μmoles of magnesium acetate, 50 μg of Histone Type II S (manufactured by Sigma Co., Ltd.), 20 μg of phosphatidyl serine, 0.8 μg of diolein, 25 nmoles of CaCl2, 5 μg of crude enzyme (partially purified from rat brain according to the method of Kikkawa, et al.) and 5 μmoles of Tris-hydrochloride buffer (pH 7.5), followed by incubation at 30° C. for 3 minutes. Then, phosphorylation was initiated by addition of 1.25 nmoles of [γ-^32 P]ATP (5 to 10×10^3 cpm/nmole), followed by incubation at 30° C. for 3 minutes The reaction was stopped by adding 25% trichloroacetic acid (TCA), and the reaction solution was filtered through a cellulose acetate membrane (pore size: 0.45 μm) (manufactured by Toyo Filter Paper Co., Ltd.). After the membrane was washed four times with 5% TCA, radioactivity remaining on the membrane was measured. As a control, the same procedure as above was repeated without addition of the test solution and radioactivity was likewise measured. The concentration of the test solution showing 50% inhibition as compared with the control was expressed as IC50.

Another experiment concerns BALB 3T3/H-ras. The experiment can be described thus: Anti-tumor activity: growth inhibition of BALB 3T3 cells transformed with H-ras (Giemsa staining). It counts as cell-based. The settings on record: Mus musculus, BALB/3T3, 72 h, read-out: IC50 BALB 3T3/H-ras Inhibitory Activity. As for the experimental part:
The anti-tumor activity was determined using BALB 3T3 cells transformed with the carcinogenic gene H-ras (hereafter referred to as BALB 3T3/H-ras).
BALB 3T3/H-ras cells were suspended in a medium comprising DME medium (manufactured by Nissui Pharmaceutical Co., Ltd.) and 10% fetal calf serum (hereafter referred to as medium A) to a concentration of 3.0×10^4 /cells ml. The cell suspension thus prepared was put into wells of a 96-well microtiter plate in an amount of 0.1 ml per well. After culturing at 37° C. for 20 hours in a CO2 -incubator, 0.1 ml each of a test solution appropriately diluted with medium A was added to each well. The cells were further cultured at 37° C. for 72 hours in the CO2 -incubator and the culture supernatant was removed. After being washed once with physiological saline, the residue was treated with 0.1 ml of methanol for 10 minutes to fix the cells. Thereafter, the cells were stained with 0.1 ml of Giemsa staining solution [Giemsa staining stock solution (Merck Art 9204; manufactured by Merck Inc.) : physiological saline=1 : 10] for 5 minutes. After the staining solution was removed, the residue was washed once with 0.2 ml of water. The pigment was extracted with 0.2 ml of 0.1 N hydrochloric acid and the absorbance at 620 nm was measured with a microplate reader. By comparing the absorbance of untreated cells with those of the cells treated with the test compound at known concentrations, the concentration of the test compound at which the growth of the cells is inhibited by 50% (IC50) was calculated.

For the compound `COc1c(C[C@@H](C)OC(=O)c2ccco2)c2c3c(C[C@@H](C)OC(=O)c4ccco4)c(OC)c(=O)c4c(O)cc(OC)c(c5c(OC)cc(O)c(c1=O)c52)c43` [Compound 35, 14,17-di-O-2-furoyl UCN-1028D], the “IC50 Protein Kinase C Inhibitory Activity” value on Protein Kinase C was 0.11 µg/mL (≈ 0.149 µM). Moreover, in the experiment with BALB 3T3/H-ras, the IC50 is 0.12 µg/mL (≈ 0.162 µM).
Consider `COc1c(C[C@@H](C)OC(=O)Cc2ccccc2)c2c3c(C[C@@H](C)OC(=O)Cc4ccccc4)c(OC)c(=O)c4c(O)cc(OC)c(c5c(OC)cc(O)c(c1=O)c52)c43` [Compound 9, 14,17-bis-O-phenylacetyl UCN-1028D], for which the “IC50 Protein Kinase C Inhibitory Activity” value at Protein Kinase C worked out at 0.054 µg/mL (≈ 0.0686 µM). Further, the IC50 in the experiment on BALB 3T3/H-ras worked out at 0.11 µg/mL (≈ 0.14 µM).
The matching figures for `COc1ccc(C(=O)O[C@H](C)Cc2c(OC)c(=O)c3c(O)cc(OC)c4c5c(OC)cc(O)c6c(=O)c(OC)c(C[C@@H](C)OC(=O)c7ccc(OC)cc7)c(c2c34)c65)cc1` [Compound 27, 14,17-bis-O-p-methoxybenzoyl UCN-1028D]: 0.05 µg/mL (≈ 0.0611 µM) and 0.026 µg/mL (≈ 0.0318 µM).
Taken in the same sequence, the figures for `CC[C@H](C)[C@H](N)C(=O)O[C@H](C)Cc1c(OC)c(=O)c2c(O)cc(OC)c3c4c(OC)cc(O)c5c(=O)c(OC)c(C[C@@H](C)OC(=O)[C@@H](N)[C@@H](C)CC)c(c1c23)c54` [Compound 15, 14,17-di-O-L-isoleucyl UCN-1028D bistrifluoroacetate] were 0.15 µg/mL (≈ 0.193 µM) and 0.28 µg/mL (≈ 0.36 µM).
The matching figures for `COc1c(C[C@@H](C)OC(=O)Nc2ccccc2)c2c3c(C[C@@H](C)OC(=O)Nc4ccccc4)c(OC)c(=O)c4c(O)cc(OC)c(c5c(OC)cc(O)c(c1=O)c52)c43` [Compound 42, 14,17-bis-O-phenylaminocarbonyl UCN-1028D]: 0.021 µg/mL (≈ 0.0266 µM) and 0.075 µg/mL (≈ 0.0951 µM).
For the compound `COc1c(C[C@@H](C)OC(=O)CCCc2ccccc2)c2c3c(C[C@@H](C)OC(=O)CCCc4ccccc4)c(OC)c(=O)c4c(O)cc(OC)c(c5c(OC)cc(O)c(c1=O)c52)c43` [Compound 11, 14,17-bis-O-4-phenylbutyryl UCN-1028D], at Protein Kinase C, the “IC50 Protein Kinase C Inhibitory Activity” value was found to be 0.035 µg/mL (≈ 0.0415 µM). Besides, the IC50 with BALB 3T3/H-ras is 2.6 µg/mL (≈ 3.08 µM).
The matching figures for `COc1c(C[C@@H](C)OC(=O)Oc2ccccc2)c2c3c(C[C@@H](C)OC(=O)Oc4ccccc4)c(OC)c(=O)c4c(O)cc(OC)c(c5c(OC)cc(O)c(c1=O)c52)c43` [Compound 38, 14,17-bis-O-phenyloxycarbonyl UCN-1028D]: 0.058 µg/mL (≈ 0.0733 µM) and 0.015 µg/mL (≈ 0.019 µM).
The matching figures for `COc1c(C[C@@H](C)OC(=O)C2CCCCC2)c2c3c(C[C@@H](C)OC(=O)C4CCCCC4)c(OC)c(=O)c4c(O)cc(OC)c(c5c(OC)cc(O)c(c1=O)c52)c43` [Compound 8, 14,17-di-O-cyclohexanecarbonyl UCN-1028D]: 0.017 µg/mL (≈ 0.0221 µM) and 0.56 µg/mL (≈ 0.726 µM).
The matching figures for `CCCCCCCCCCCC(=O)O[C@H](C)Cc1c(OC)c(=O)c2c(O)cc(OC)c3c4c(OC)cc(O)c5c(=O)c(OC)c(C[C@@H](C)OC(=O)CCCCCCCCCCC)c(c1c23)c54` [Compound 6, 14,17-di-O-dodecanoyl UCN-1028D]: 0.15 µg/mL (≈ 0.164 µM) and 4.8 µg/mL (≈ 5.24 µM).
As for `COc1c(C[C@@H](C)OC(=O)[C@H](N)Cc2ccccc2)c2c3c(C[C@@H](C)OC(=O)[C@H](N)Cc4ccccc4)c(OC)c(=O)c4c(O)cc(OC)c(c5c(OC)cc(O)c(c1=O)c52)c43` [Compound 18, 14,17-di-O-D-phenylalanyl UCN-1028D bistrifluoroacetate], the “IC50 Protein Kinase C Inhibitory Activity” value against Protein Kinase C was 0.16 µg/mL (≈ 0.189 µM). The IC50 in the experiment on BALB 3T3/H-ras came to 0.84 µg/mL (≈ 0.994 µM).
Taken in the same sequence, the figures for `COc1c(C[C@@H](C)OC(C)=O)c2c3c(C[C@@H](C)OC(C)=O)c(OC)c(=O)c4c(O)cc(OC)c(c5c(OC)cc(O)c(c1=O)c52)c43` [Compound 1, 14,17-di-O-acetyl UCN-1028D] were 1.6 µg/mL (≈ 2.52 µM) and 0.048 µg/mL (≈ 0.0756 µM).
In the case of `COc1c(C[C@@H](C)OC(=O)CCc2ccccc2)c2c3c(C[C@@H](C)OC(=O)CCc4ccccc4)c(OC)c(=O)c4c(O)cc(OC)c(c5c(OC)cc(O)c(c1=O)c52)c43` [Compound 10, 14,17-bis-O-3-phenylpropionyl UCN-1028D], on Protein Kinase C, the “IC50 Protein Kinase C Inhibitory Activity” value was 0.045 µg/mL (≈ 0.0552 µM). Moreover, the IC50 in the experiment with BALB 3T3/H-ras turned out to be 0.95 µg/mL (≈ 1.17 µM).
Taken in the same sequence, the figures for `COC(=O)c1ccc(C(=O)O[C@H](C)Cc2c(OC)c(=O)c3c(O)cc(OC)c4c5c(OC)cc(O)c6c(=O)c(OC)c(C[C@@H](C)OC(=O)c7ccc(C(=O)OC)cc7)c(c2c34)c65)cc1` [Compound 28, 14,17-bis-O-p-methoxycarbonylbenzoyl UCN-1028D] were 0.084 µg/mL (≈ 0.096 µM) and 0.068 µg/mL (≈ 0.0777 µM).
As to `CCCCCCCCCC(=O)O[C@H](C)Cc1c(OC)c(=O)c2c(O)cc(OC)c3c4c(OC)cc(O)c5c(=O)c(OC)c(C[C@@H](C)OC(=O)CCCCCCCCC)c(c1c23)c54` [Compound 5, 14,17-di-O-decanoyl UCN-1028D], on Protein Kinase C, the “IC50 Protein Kinase C Inhibitory Activity” value was found to be 0.068 µg/mL (≈ 0.0792 µM). For the same compound, the IC50 with BALB 3T3/H-ras was 7 µg/mL (≈ 8.15 µM).
Taken in the same sequence, the figures for `CN[C@@H](Cc1ccccc1)C(=O)O[C@H](C)Cc1c(OC)c(=O)c2c(O)cc(OC)c3c4c(OC)cc(O)c5c(=O)c(OC)c(C[C@@H](C)OC(=O)[C@H](Cc6ccccc6)NC)c(c1c23)c54` [Compound 19, 14,17-bis-O-N-methyl-L-phenylalanyl UCN-1028D bistrifluoroacetate] were 0.1 µg/mL (≈ 0.115 µM) and 0.35 µg/mL (≈ 0.401 µM).
The matching figures for `COc1c(C[C@@H](C)OC(=O)c2ccc3ccccc3c2)c2c3c(C[C@@H](C)OC(=O)c4ccc5ccccc5c4)c(OC)c(=O)c4c(O)cc(OC)c(c5c(OC)cc(O)c(c1=O)c52)c43` [Compound 32, 14,17-di-O-2-naphthoyl UCN-1028D]: 0.1 µg/mL (≈ 0.116 µM) and 1.2 µg/mL (≈ 1.4 µM).
For `COC(=O)O[C@H](C)Cc1c(OC)c(=O)c2c(O)cc(OC)c3c4c(OC)cc(O)c5c(=O)c(OC)c(C[C@@H](C)OC(=O)OC)c(c1c23)c54` [Compound 36, 14,17-bis-O-methoxycarbonyl UCN-1028D], at Protein Kinase C, the “IC50 Protein Kinase C Inhibitory Activity” value turned out to be 0.29 µg/mL (≈ 0.435 µM). Also, the IC50 in the experiment with BALB 3T3/H-ras is 0.13 µg/mL (≈ 0.195 µM).
The matching figures for `COc1c(C[C@@H](C)OC(=O)c2ccc(C#N)cc2)c2c3c(C[C@@H](C)OC(=O)c4ccc(C#N)cc4)c(OC)c(=O)c4c(O)cc(OC)c(c5c(OC)cc(O)c(c1=O)c52)c43` [Compound 25, 14,17-bis-O-p-cyanobenzoyl UCN-1028D]: 0.05 µg/mL (≈ 0.0618 µM) and 0.042 µg/mL (≈ 0.0519 µM).
The matching figures for `COc1c(C[C@@H](C)OS(C)(=O)=O)c2c3c(C[C@@H](C)OS(C)(=O)=O)c(OC)c(=O)c4c(O)cc(OC)c(c5c(OC)cc(O)c(c1=O)c52)c43` [Compound 39, 14,17-bis-O-methanesulfonyl UCN-1028D]: 0.5 µg/mL (≈ 0.707 µM) and 0.35 µg/mL (≈ 0.495 µM).
Taken in the same sequence, the figures for `CCCC(=O)O[C@H](C)Cc1c(OC)c(=O)c2c(O)cc(OC)c3c4c(OC)cc(O)c5c(=O)c(OC)c(C[C@@H](C)OC(=O)CCC)c(c1c23)c54` [Compound 2, 14,17-di-O-butyryl UCN-1028D] were 0.14 µg/mL (≈ 0.203 µM) and 0.023 µg/mL (≈ 0.0333 µM).

The values are drawn from patent publication US5140044A, “UCN-1028D derivatives” (Kyowa Hakko Kogyo Co., Ltd., priority 1989, dated 1992).
